The values that follow come from article PMC10233622, “Structural and functional investigation of a fungal member of carbohydrate esterase family 15 with potential specificity for rare xylans” (Acta Crystallographica. Section D, Structural Biology, 2023).

For this test, the target named is T1, LfCE15C (Lentithecium fluviatile, UniProt A0A6G1IIU9).
T1 construct: gene K458DRAFT_349146; native signal peptide removed; secreted from Pichia pastoris SMD1168H; N-glycosylated at Asn241
Briefly: nanoDSF thermal shift (Tycho NT.[…] nm). To be noted: 20 mM ligand; 0.1 M sodium phosphate pH 6.5; indirect indication of binding. (In general: Differential scanning fluorimetry follows unfolding on heating by fluorescence.)

T1 sequence (A0A6G1IIU9 entry or part of it): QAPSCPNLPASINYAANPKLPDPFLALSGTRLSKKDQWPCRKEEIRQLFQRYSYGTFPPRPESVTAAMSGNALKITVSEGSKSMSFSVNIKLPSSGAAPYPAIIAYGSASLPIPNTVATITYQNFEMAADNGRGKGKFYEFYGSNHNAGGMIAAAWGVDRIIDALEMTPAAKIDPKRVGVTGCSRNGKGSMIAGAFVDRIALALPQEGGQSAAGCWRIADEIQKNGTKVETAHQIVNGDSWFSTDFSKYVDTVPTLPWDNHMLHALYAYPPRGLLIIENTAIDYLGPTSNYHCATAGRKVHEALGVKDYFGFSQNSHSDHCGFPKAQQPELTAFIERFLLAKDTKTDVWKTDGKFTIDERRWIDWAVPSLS

For `O=C(OCc1ccccc1)[C@H]1OC(O)[C@H](O)[C@@H](O)[C@@H]1O` (stereo partly shown) [BnzGlcA, benzyl glucuronate], the Ti shift entry is recorded as “A decrease in T i was observed with BnzGlcA”.
